Source: publication PMC5993640 (European journal of medicinal chemistry, 2018)
“And” between values parts separate entries of the source, which are not always exact repeats. Identical values can stand only once. Like-named read-outs stand apart in the source and are kept apart here.

Experiments:
HIV-1HXB2 = assay type: cell-based
HIV-1IIIB = assay: Multi-cycle infection assay in MT-2 cells
hERG potassium channel = hERG potassium channel (Homo sapiens, UniProt Q12809); assay: hERG channel inhibition, whole-cell patch clamp in HEK293 cells; assay type: cell-based; settings: HEK293 cells stably transfected with hERG cDNA
hERG potassium channel, sequence (Q12809 whole entry): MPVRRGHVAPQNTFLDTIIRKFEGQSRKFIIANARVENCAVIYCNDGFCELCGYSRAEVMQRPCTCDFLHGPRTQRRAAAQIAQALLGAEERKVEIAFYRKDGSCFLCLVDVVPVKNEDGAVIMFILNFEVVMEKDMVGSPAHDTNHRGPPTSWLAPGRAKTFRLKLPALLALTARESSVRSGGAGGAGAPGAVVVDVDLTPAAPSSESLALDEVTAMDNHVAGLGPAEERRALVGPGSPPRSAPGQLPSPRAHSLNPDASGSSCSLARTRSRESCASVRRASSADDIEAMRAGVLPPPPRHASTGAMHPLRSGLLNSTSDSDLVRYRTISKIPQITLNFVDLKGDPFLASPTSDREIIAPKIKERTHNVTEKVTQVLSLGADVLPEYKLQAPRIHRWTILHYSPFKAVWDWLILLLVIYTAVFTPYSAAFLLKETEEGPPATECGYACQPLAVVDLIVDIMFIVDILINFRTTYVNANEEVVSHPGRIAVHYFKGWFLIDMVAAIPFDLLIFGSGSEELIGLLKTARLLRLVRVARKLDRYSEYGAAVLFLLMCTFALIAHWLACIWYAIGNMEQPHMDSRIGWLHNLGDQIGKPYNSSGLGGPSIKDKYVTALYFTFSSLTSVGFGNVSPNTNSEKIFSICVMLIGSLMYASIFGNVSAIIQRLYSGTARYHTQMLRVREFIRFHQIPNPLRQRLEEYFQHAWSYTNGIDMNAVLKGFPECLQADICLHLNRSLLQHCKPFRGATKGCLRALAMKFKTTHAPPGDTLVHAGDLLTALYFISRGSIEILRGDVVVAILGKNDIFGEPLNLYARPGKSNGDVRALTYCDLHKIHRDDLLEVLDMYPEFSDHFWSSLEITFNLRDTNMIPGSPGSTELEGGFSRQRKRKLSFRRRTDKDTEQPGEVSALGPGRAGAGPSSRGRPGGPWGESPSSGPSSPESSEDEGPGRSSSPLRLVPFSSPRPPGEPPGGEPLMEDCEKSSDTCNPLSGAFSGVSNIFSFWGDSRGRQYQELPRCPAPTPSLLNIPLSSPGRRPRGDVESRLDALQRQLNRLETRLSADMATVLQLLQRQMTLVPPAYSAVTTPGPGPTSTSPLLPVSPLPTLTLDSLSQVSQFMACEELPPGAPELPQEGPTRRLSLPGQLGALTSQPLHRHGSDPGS

[1] = system: HIV-1HXB2 WT and Env gp120 mutated pseudoviruses; assay: microbe, parasite or virus in culture; assay type: cell-based; settings: Human immunodeficiency virus 1, U87.CD4.CXCR4
Aqueous solubility = assay type: physicochemical; settings: universal aqueous buffer
[2] = Cytotoxicity in TZM-bl cells; assay type: cell-based; settings: human
VSV-G = assay type: cell-based; settings: U87-CD4-CXCR4 cells
[3] = Cytotoxicity in U87-CD4-CXCR4 cells; assay type: cell-based; settings: human
[4] = system: HIV-1 mediated cell-cell fusion; assay: HIV-1 mediated cell-cell fusion inhibition assay; assay type: cell-based; settings: HL2/3 effector and TZM-bl target cells
TZM-bl cells = assay: Cytotoxicity in TZM-bl cells; assay type: cell-based; settings: read-out: Toxicity CC50 (TZM-bl)
MT-2 cells = assay: Cytotoxicity in MT-2 cells; assay type: cell-based; settings: read-out: Toxicity CC50 (MT-2)
Plasma protein binding = assay type: in vitro ADME
[5] = Metabolic stability in human liver microsomes; settings: 3 μM
[6] = pH 7.4, Solubility Range when prepared at 500 μM, With 5% DMSO, pH7.4 (first line)
[7] = read-out: HIV-1IIIB IC50, MT-2 cells, multi-cycle, mean ± SD, n=3
[8] = pH 7.4, aqueous solubility, DMSO concentration of 2%

NC[C@H](NC(=O)c1ccc(-c2ccc(C(F)(F)F)cc2)[nH]1)c1nc(CO)cs1 [Compound 49, N-(2-Amino-1-(4-(hydroxymethyl)thiazol-2-yl)ethyl)-5-(4-(trifluoromethyl)phenyl)-1H-pyrrole-2-carboxamide]
fold enhancement in antiviral potency (IC50) after CH2OH switch C5 to C4 (HIV-1HXB2; HIV-1HXB2 in TZM-bl cells, 39 vs NBD-14107, 49 vs 47, 55 vs 53): ~ 3.4 fold

CNC[C@H](NC(=O)c1ccc(-c2ccc(C(F)(F)F)cc2)[nH]1)c1nc(CO)cs1 [Compound 51, N-(1-(4-(Hydroxymethyl)thiazol-2-yl)-2-(methylamino)ethyl)-5-(4-(trifluoromethyl)phenyl)-1H-pyrrole-2-carboxamide]
IC50 (HIV-1IIIB; Human immunodeficiency virus 1, MT2, read-out: HIV-1IIIB IC50): 100 nM

COc1cc(N)c(Cl)cc1C(=O)NC1CCN(CCCOc2ccc(F)cc2)CC1OC (centres unmarked) [Cisapride]
inhibition at 0.09 µM (hERG potassium channel): 85.2 ± 2.3%

COc1cnc(-n2cnc(C)n2)c2[nH]cc(C(=O)C(=O)N3CCN(C(=O)c4ccccc4)CC3)c12 [BMS-626529, reference compound]
IC50 [1]: ~8 nM
solubility at 90 min (Aqueous solubility; [6]): 100 µM to 500 µM and 47.3 µg/mL to 237 µg/mL

NC[C@@H](NC(=O)c1ccc(-c2ccc(C(F)(F)F)cc2)[nH]1)c1ncc(CO)s1 [Compound 48, N-(2-Amino-1-(5-(hydroxymethyl)thiazol-2-yl)ethyl)-5-(4-(trifluoromethyl)phenyl)-1H-pyrrole-2-carboxamide]
CC50 at 72 h [2]: 42.4 ± 1 µM
Control VSV-G IC50 (VSV-G): poorly active
CC50 at 3 days [3]: 46.4 ± 4.7 µM
IC50 HIV-1 mediated cell-cell fusion [4]: active at slightly higher concentration than NBD-556 and 55

N-(2-Amino-1-(5-(hydroxymethyl)thiazol-2-yl)ethyl)-5-(3,5-difluoro-4-(trifluoromethyl)-phenyl)-1H-pyrrole-2-carboxamide [Compound 58]
CC50 (TZM-bl cells): 23.5 ± 0.5 µM
CC50 (MT-2 cells): 15.5 ± 0.45 µM

N-(2-Amino-1-(5-(hydroxymethyl)oxazol-2-yl)ethyl)-5-(4-chloro-3,5-difluorophenyl)-1H-pyrrole-2-carboxamide [Compound 66]
IC50 (HIV-1HXB2; read-out: HIV-1HXB2 IC50, TZM-bl cells, single-cycle, mean ± SD, n=3): 760 ± 100 nM
CC50 (TZM-bl cells): 30.9 ± 1.7 µM
CC50 (MT-2 cells): 44.7 ± 1.5 µM
IC50 (HIV-1IIIB; [7]): 900 ± 100 nM

N-(2-Amino-1-(5-(hydroxymethyl)thiazol-2-yl)ethyl)-5-(3,5-difluoro-4-(trifluoromethyl)-phenyl)-1H-pyrrole-2-carboxamide [Compound 57]
CC50 (TZM-bl cells): 23 ± 0.6 µM
CC50 (MT-2 cells): 14.3 ± 0.6 µM

N-(2-Amino-1-(5-(hydroxymethyl)oxazol-2-yl)ethyl)-5-(4-chloro-3,5-difluorophenyl)-1H-pyrrole-2-carboxamide [Compound 67]
CC50 (TZM-bl cells): 27.7 ± 0.5 µM
CC50 (MT-2 cells): 26.5 ± 2 µM
IC50 (HIV-1IIIB; [7]): 800 ± 100 nM

NCC(NC(=O)c1ccc(-c2cc(F)c(Cl)c(F)c2)[nH]1)c1nc(CO)cs1 (centres unmarked) [Compound 39, N-(2-Amino-1-(4-(hydroxymethyl)thiazol-2-yl)ethyl)-5-(4-chloro-3,5-difluorophenyl)-1H-pyrrole-2-carboxamide]
Control VSV-G IC50 (VSV-G): poorly active
CC50 at 3 days [3]: 39.3 ± 2.3 µM
IC50 HIV-1 mediated cell-cell fusion [4]: active at slightly higher concentration than NBD-556 and 55
solubility at 90 min (Aqueous solubility; [6]): ~206 µg/mL
solubility at 90 min (Aqueous solubility; [8]): 100 to 500 µM
bound to proteins in human plasma (Plasma protein binding): > 99%
parent compound remaining at 120 min (% of 0 min) [5]: 88.5 to 90.4%

NCC(NC(=O)c1ccc(-c2ccc(C(F)(F)F)c(F)c2)[nH]1)c1nc(CO)cs1 (centres unmarked) [Compound 55, N-(2-Amino-1-(4-(hydroxymethyl)thiazol-2-yl)ethyl)-5-(3-fluoro-4-(trifluoromethyl)-phenyl)-1H-pyrrole-2-carboxamide]
Control VSV-G IC50 (VSV-G): poorly active
solubility at 90 min (Aqueous solubility; [6]): 100 µM to 500 µM and 42.4 µg/mL to 214 µg/mL
solubility at 90 min (Aqueous solubility; [8]): 100 to 500 µM
bound to proteins in human plasma (Plasma protein binding): > 99%
parent compound remaining at 120 min (% of 0 min) [5]: 88.5 to 90.4%
